In PMC11589570, “Critical assessment of LC3/GABARAP ligands used for degrader development and ligandability of LC3/GABARAP binding pockets” (Nature Communications, 2024):
Values joined by “and” are separate entries in the source; they are usually repeats but may differ in a detail not shown here. Equal entries are not always repeated.

Tests used:
Assay in all cases: FP assay with Cy5-labelled p62 LIR tracer (protein titration and tracer displacement)
Details in all cases: replicates, listed as TH152
LC3C = LC3C (Homo sapiens, UniProt Q9BXW4); assay type: binding
GABARAP = GABARAP (Homo sapiens, UniProt O95166); assay type: binding
GABARAPL1 = GABARAPL1 (Homo sapiens, UniProt Q9H0R8); assay type: binding
GABARAPL2 = GABARAPL2 (Homo sapiens, UniProt P60520)
GABARAPL2, sequence (P60520 whole entry): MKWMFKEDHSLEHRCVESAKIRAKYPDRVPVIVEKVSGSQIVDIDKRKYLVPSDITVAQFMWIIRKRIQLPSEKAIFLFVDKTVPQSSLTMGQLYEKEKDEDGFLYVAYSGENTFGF

GABARAPL1, sequence (Q9H0R8 whole entry): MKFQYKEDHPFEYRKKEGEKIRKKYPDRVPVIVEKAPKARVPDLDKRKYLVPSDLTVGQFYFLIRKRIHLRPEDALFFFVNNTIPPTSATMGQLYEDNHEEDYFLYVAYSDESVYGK
GABARAP, sequence (O95166 1-116): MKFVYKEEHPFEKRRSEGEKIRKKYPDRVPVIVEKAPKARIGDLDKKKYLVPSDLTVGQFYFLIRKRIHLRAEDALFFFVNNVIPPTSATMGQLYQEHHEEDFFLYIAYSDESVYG
LC3C, sequence (Q9BXW4 1-126): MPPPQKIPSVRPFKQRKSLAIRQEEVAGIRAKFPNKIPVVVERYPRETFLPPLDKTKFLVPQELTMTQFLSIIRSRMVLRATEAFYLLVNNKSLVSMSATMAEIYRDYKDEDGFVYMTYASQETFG

Q: CCCCCCC(Sc1nc(Cl)cc(Nc2nc(-c3ccc(C(=O)O)cc3)cs2)n1)C(=O)O (centres unmarked) [compound 21] was tested. Which “FP assay result (normalised FP signal)” value (LC3C; log10 concentration [M] -3.5) did it give?
A: 19.6537 and 17.9691 and 15.5358 and 11.7922

Q: What about the “FP assay result (normalised FP signal)” value (LC3C; log10 concentration [M] -4) of the same molecule?
A: 50.5381 and 45.8587 and 48.6664 and 46.0459

Q: And the “FP assay result (normalised FP signal)” value (LC3C; log10 concentration [M] -4.5)?
A: 71.5021 and 72.0636 and 76.3687 and 74.6841

Q: What about the “FP assay result (normalised FP signal)” value (LC3C; log10 concentration [M] -5) of the same molecule?
A: 93.0276 and 94.7122 and 94.8994 and 95.6481

Q: What about the “FP assay result (normalised FP signal)” value (LC3C; log10 concentration [M] -5.5) of the same molecule?
A: 93.7763 and 94.3379 and 97.5199 and 95.8353

Q: What about the “FP assay result (normalised FP signal)” value (LC3C; log10 concentration [M] -6) of the same molecule?
A: 96.0225 and 101.076 and 101.638 and 98.4558

Q: What about the “FP assay result (normalised FP signal)” value (LC3C; log10 concentration [M] -6.5) of the same molecule?
A: 90.0328 and 92.0917 and 90.5943 and 93.2148

Q: What about the “FP assay result (normalised FP signal)” value (LC3C; log10 concentration [M] -7) of the same molecule?
A: 99.2045 and 96.9584 and 97.5199 and 97.8942

Q: What about the “FP assay result (normalised FP signal)” value (LC3C; log10 concentration [M] -7.5) of the same molecule?
A: 99.9532 and 98.8301 and 99.3917 and 101.825

Q: And the “FP assay result (normalised FP signal)” value (LC3C; log10 concentration [M] -8)?
A: 96.2096 and 99.0173 and 101.263 and 99.2045

Q: What about the “FP assay result (normalised FP signal)” value (LC3C; log10 concentration [M] -8.5) of the same molecule?
A: 94.3379 and 96.2096 and 95.0866 and 96.0225

Q: And the “FP assay result (normalised FP signal)” value (GABARAP; log10 concentration [M] -3.5)?
A: 6.476 and 7.14 and 8.634 and 10.7929

Q: What about the “FP assay result (normalised FP signal)” value (GABARAP; log10 concentration [M] -4) of the same molecule?
A: 22.9141 and 19.9253 and 28.8917 and 24.7406

Q: What about the “FP assay result (normalised FP signal)” value (GABARAP; log10 concentration [M] -4.5) of the same molecule?
A: 50.1453 and 47.6546 and 52.4699 and 48.8169

Q: And the “FP assay result (normalised FP signal)” value (GABARAP; log10 concentration [M] -5)?
A: 88.9996 and 85.5127 and 92.3205 and 91.9884

Q: What about the “FP assay result (normalised FP signal)” value (GABARAP; log10 concentration [M] -5.5) of the same molecule?
A: 94.6451 and 91.9884 and 100.623 and 97.7999

Q: And the “FP assay result (normalised FP signal)” value (GABARAP; log10 concentration [M] -6)?
A: 98.298 and 99.6264 and 101.287 and 99.7924

Q: What about the “FP assay result (normalised FP signal)” value (GABARAP; log10 concentration [M] -6.5) of the same molecule?
A: 94.479 and 92.8186 and 96.6376 and 97.7999

Q: What about the “FP assay result (normalised FP signal)” value (GABARAP; log10 concentration [M] -7) of the same molecule?
A: 96.3055 and 97.7999 and 100.955 and 96.9697

Q: And the “FP assay result (normalised FP signal)” value (GABARAP; log10 concentration [M] -7.5)?
A: 97.3018 (2×) and 101.453 and 101.785

Q: What about the “FP assay result (normalised FP signal)” value (GABARAP; log10 concentration [M] -8) of the same molecule?
A: 99.9585 and 97.966 and 101.619 and 100.457

Q: What about the “FP assay result (normalised FP signal)” value (GABARAP; log10 concentration [M] -8.5) of the same molecule?
A: 96.1395 and 97.7999 and 97.966 and 99.2943

Q: What about the “FP assay result (normalised FP signal)” value (GABARAPL1; log10 concentration [M] -3.5) of the same molecule?
A: 12.2578 and 12.5396 and 10.1444 and 7.186

Q: What about the “FP assay result (normalised FP signal)” value (GABARAPL1; log10 concentration [M] -4) of the same molecule?
A: 30.4333 and 31.4195 and 29.5879 and 26.0655

Q: What about the “FP assay result (normalised FP signal)” value (GABARAPL1; log10 concentration [M] -4.5) of the same molecule?
A: 65.2342 and 56.9215 and 57.9077 and 55.9352

Q: What about the “FP assay result (normalised FP signal)” value (GABARAPL1; log10 concentration [M] -5) of the same molecule?
A: 92.9905 and 91.2998 and 95.2448 and 93.4132

Q: And the “FP assay result (normalised FP signal)” value (GABARAPL1; log10 concentration [M] -5.5)?
A: 96.2311 and 98.3445 and 98.9081 and 98.7672

Q: And the “FP assay result (normalised FP signal)” value (GABARAPL1; log10 concentration [M] -6)?
A: 98.6263 and 98.7672 (2×) and 99.1899

Q: What about the “FP assay result (normalised FP signal)” value (GABARAPL1; log10 concentration [M] -6.5) of the same molecule?
A: 96.2311 and 93.5541 and 95.6675 and 93.2723

Q: And the “FP assay result (normalised FP signal)” value (GABARAPL1; log10 concentration [M] -7)?
A: 99.049 and 98.3445 and 97.64 and 97.4991

Q: And the “FP assay result (normalised FP signal)” value (GABARAPL1; log10 concentration [M] -7.5)?
A: 101.021 and 101.867 and 99.049 and 98.0627

Q: What about the “FP assay result (normalised FP signal)” value (GABARAPL1; log10 concentration [M] -8) of the same molecule?
A: 97.0764 and 96.0902 (2×) and 101.162

Q: And the “FP assay result (normalised FP signal)” value (GABARAPL1; log10 concentration [M] -8.5)?
A: 95.6675 and 98.9081 and 96.9355 and 97.3582

Q: And the “FP assay result (normalised FP signal)” value (GABARAPL2; log10 concentration [M] -3.5)?
A: 15.4589 and 21.9002 and 32.8502 and 25.1208

Q: What about the “FP assay result (normalised FP signal)” value (GABARAPL2; log10 concentration [M] -4) of the same molecule?
A: 44.4444 and 43.8003 and 53.7842 and 57.0048

Q: And the “FP assay result (normalised FP signal)” value (GABARAPL2; log10 concentration [M] -4.5)?
A: 73.752 and 73.1079 and 75.0403 and 77.2947

Q: What about the “FP assay result (normalised FP signal)” value (GABARAPL2; log10 concentration [M] -5) of the same molecule?
A: 94.686 and 90.8213 and 95.0081 and 104.992

Q: And the “FP assay result (normalised FP signal)” value (GABARAPL2; log10 concentration [M] -5.5)?
A: 97.2625 and 94.0419 and 105.958 and 102.093

Q: What about the “FP assay result (normalised FP signal)” value (GABARAPL2; log10 concentration [M] -6) of the same molecule?
A: 96.2963 and 93.0757 and 104.026 and 99.5169

Q: What about the “FP assay result (normalised FP signal)” value (GABARAPL2; log10 concentration [M] -6.5) of the same molecule?
A: 86.9565 and 89.8551 and 99.1948 and 93.0757

Q: And the “FP assay result (normalised FP signal)” value (GABARAPL2; log10 concentration [M] -7)?
A: 90.4992 and 100.483 and 104.992 and 96.9404

Q: And the “FP assay result (normalised FP signal)” value (GABARAPL2; log10 concentration [M] -7.5)?
A: 99.839 and 95.9742 and 100.161 and 104.026

Q: What about the “FP assay result (normalised FP signal)” value (GABARAPL2; log10 concentration [M] -8) of the same molecule?
A: 94.686 and 94.3639 and 101.127 and 98.5507

Q: And the “FP assay result (normalised FP signal)” value (GABARAPL2; log10 concentration [M] -8.5)?
A: 91.4654 and 99.5169 and 96.2963 and 101.127
